Measurements taken from US10125098B2, “Therapeutic compounds and methods of use thereof” (GENENTECH, INC., priority 2014, dated 2018).
Counter-ions that a name gives are not always drawn. Like-named read-outs stand apart in the source and are kept apart here.

Columns and labels:
[1] = target: T1, human NaV1.7 (Homo sapiens, UniProt Q15858); test: Patch voltage clamp electrophysiology assay (EP), NaV1.7; format: cell-based; conditions: HEK-293 cells stably expressing NaV1.7 with β1 subunit; whole-cell patch clamp, membrane potential −60 mV (inactivated state)
T1 construct: permanently transfected with an expression vector containing the full-length cDNA coding for the desired human sodium channel α-subunit; expressed in transfected cells; host or cells: HEK-293
Description: (§1) The following patch voltage clamp electrophysiology studies were performed on representative compounds of the invention using human embryonic kidney cells (HEK), permanently transfected with an expression vector containing the full-length cDNA coding for the desired human sodium channel α-subunit, grown in culture media containing 10% FBS, 1% PSG, and 0.5 mg/mL G418 at 37° C. with 5% CO2. […] NaV1.7 and NaV1.5 cDNAs (NM_002977 and AC137587; SCN5A, respectively) were stably expressed in HEK-293 cells. The β1 subunit was coexpressed in both the NaV1.7 and NaV1.5 cell lines.
(§2) Sodium currents were measured using the patch clamp technique in the whole-cell configuration using either a PatchXpress automated voltage clamp or manually using an Axopatch 200B (Axon Instruments) or Model 2400 (A-M systems) amplifier. The manual voltage clamp protocol was as follows: Borosilicate glass micropipettes were fire-polished to a tip diameter yielding a resistance of 2-4 Mohms in the working solutions. The pipette was filled with a solution comprised of: 5 mM NaCl, 10 mM CsCl, 120 mM CsF, 0.1 mM CaCl2, 2 mM MgCl2, 10 mM HEPES, 10 mM EGTA; and adjusted to pH 7.2 with CsOH. The external solution had the following composition: 140 mM NaCl, 5 mM KCl, 2 mM CaCl2, 1 mM MgCl2, 10 mM HEPES; and adjusted to pH 7.4 with NaOH. In some studies, the external sodium was reduced by equimolar replacement with choline. Osmolarity in the CsF internal and NaCl external solutions was adjusted to 300 mOsm/kg and 310 mOsm/kg with glucose, respectively. All recordings were performed at ambient temperature in a bath chamber with a volume of 150 μL. Control sodium currents were measured in 0.5% DMSO. Controls and representative compounds of the invention were applied to the recording chamber through a 4-pinch or 8-pinch valve bath perfusion system manufactured by ALA Scientific Instruments.
(§3) Series resistance compensation was applied (60-80%). […] All statistics in this study are given as mean±SD.
(§4) The membrane potential was maintained at a voltage where inactivation of the channel is complete (which was −60 mV for both NaV1.7 and NaV1.5). The voltage is then stepped back to a very negative (Vhold=[…]) voltage for 20 ms and then a test pulse is applied to quantify the compound block. […] The percent decrease in sodium current following wash-on of compound was taken as the percent block of sodium channels.

[2] = target: T2, hNav1.7 (Homo sapiens, UniProt Q15858); test: Tritiated compound binding (LBA) to membranes from cells expressing hNav1.7 and the β1 subunit, competitive binding; conditions: competitive binding vs 100 pM [3H]compound, 18 h, room temperature, membranes with hNav1.7 and β1 subunit
T2 construct: expressed in transfected cells
Description: Tritiated Compound Binding to Membranes
Isolated from Cells that Heterologously Express hNav1.7 and the β1 Subunit
Preparation of membranes containing recombinantly expressed sodium channels: Frozen recombinant cell pellets were thawed on ice and diluted to 4 times the cell pellet weight with ice cold 50 mM Tris HCl, pH 7.4 buffer. The cell suspensions were homogenized on ice using a motorized glass dounce homogeniser. […] The supernatants were collected and centrifuged at 10000×g at 4° C. for 50 min. The pellets were then re-suspended in 100 mM NaCl, 20 mM Tris HCl, pH 7.4 buffer containing 1% v/v protease inhibitors (Calbiochem) and re-homogenized on ice. The homogenized membranes were then processed through a syringe equipped with a 26 gauge needle. Protein concentrations were determined by Bradford Assay and the membranes were stored at −80° C.
Saturation experiments. A representative compound of formula (I) having a methyl group was tritiated. Three tritiums were incorporated in place of methyl hydrogens to generate [^3H]compound. Binding of this radioligand was performed in 5 mL borosilicate glass test tubes at room temperature. Binding was initiated by adding membranes to increasing concentrations of [^3H]compound in 100 mM NaCl, 20 mM Tris HCl, pH 7.4 buffer containing 0.01% w/v bovine serum albumin (BSA) for 18 h. Non-specific binding was determined in the presence of 1 μM unlabeled compound. After 18 h, the reactants were filtered through GF/C glass fiber filters presoaked in 0.5% w/v polyethylene imine. […] [^3H]compound bound to filters was quantified by liquid scintillation counting.
Binding reactions were performed in 96-well polypropylene plates at room temperature for 18 h. In 360 μL, membranes were incubated with 100 pM [^3H]compound and increasing concentrations of Test Compound. Non-specific binding was defined in the presence of 1 μM unlabeled compound. Reactions were transferred and filtered through 96-well glass fiber/C filter plates presoaked with 0.5% polyethylene imine. […] Bound radioactivity was determined by liquid scintillation counting.
Data Analysis: For saturation experiments, non-specific binding was subtracted from total binding to provide specific binding and these values were recalculated in terms of pmol ligand bound per mg protein. Saturation curves were constructed and dissociation constants were calculated using the single site ligand binding model: Beq=(Bmax*X)/(X+Kd), where Beq is the amount of ligand bound at equilibrium, Bmax is the maximum receptor density, Kd is the dissociation constant for the ligand, and X is the free ligand concentration. For competition studies percent inhibition was determined and IC50 values were calculated using a 4 parameter logistic model (% inhibition=(A+((B−A)/(1+((x/C)^D)))) using XLfit, where A and B are the maximal and minimum inhibition respectively, C is the IC50 concentration and D is the (Hill) slope.

[3] = target: T3, NaV1.5 (Homo sapiens, UniProt Q14524); test: Patch voltage clamp electrophysiology assay (EP), NaV1.5; format: cell-based; conditions: HEK-293 cells stably expressing NaV1.5 with β1 subunit, whole-cell patch clamp, membrane potential −60 mV (inactivated state)
T3 construct: permanently transfected with an expression vector containing the full-length cDNA coding for the desired human sodium channel α-subunit; expressed in transfected cells; host or cells: HEK-293
Description: as §1, §2, §3, §4

[4] = human, HEK-293 cells stably expressing human NaV1.5 with β1 subunit, pH 7.4

T3 sequence (Q14524 whole entry): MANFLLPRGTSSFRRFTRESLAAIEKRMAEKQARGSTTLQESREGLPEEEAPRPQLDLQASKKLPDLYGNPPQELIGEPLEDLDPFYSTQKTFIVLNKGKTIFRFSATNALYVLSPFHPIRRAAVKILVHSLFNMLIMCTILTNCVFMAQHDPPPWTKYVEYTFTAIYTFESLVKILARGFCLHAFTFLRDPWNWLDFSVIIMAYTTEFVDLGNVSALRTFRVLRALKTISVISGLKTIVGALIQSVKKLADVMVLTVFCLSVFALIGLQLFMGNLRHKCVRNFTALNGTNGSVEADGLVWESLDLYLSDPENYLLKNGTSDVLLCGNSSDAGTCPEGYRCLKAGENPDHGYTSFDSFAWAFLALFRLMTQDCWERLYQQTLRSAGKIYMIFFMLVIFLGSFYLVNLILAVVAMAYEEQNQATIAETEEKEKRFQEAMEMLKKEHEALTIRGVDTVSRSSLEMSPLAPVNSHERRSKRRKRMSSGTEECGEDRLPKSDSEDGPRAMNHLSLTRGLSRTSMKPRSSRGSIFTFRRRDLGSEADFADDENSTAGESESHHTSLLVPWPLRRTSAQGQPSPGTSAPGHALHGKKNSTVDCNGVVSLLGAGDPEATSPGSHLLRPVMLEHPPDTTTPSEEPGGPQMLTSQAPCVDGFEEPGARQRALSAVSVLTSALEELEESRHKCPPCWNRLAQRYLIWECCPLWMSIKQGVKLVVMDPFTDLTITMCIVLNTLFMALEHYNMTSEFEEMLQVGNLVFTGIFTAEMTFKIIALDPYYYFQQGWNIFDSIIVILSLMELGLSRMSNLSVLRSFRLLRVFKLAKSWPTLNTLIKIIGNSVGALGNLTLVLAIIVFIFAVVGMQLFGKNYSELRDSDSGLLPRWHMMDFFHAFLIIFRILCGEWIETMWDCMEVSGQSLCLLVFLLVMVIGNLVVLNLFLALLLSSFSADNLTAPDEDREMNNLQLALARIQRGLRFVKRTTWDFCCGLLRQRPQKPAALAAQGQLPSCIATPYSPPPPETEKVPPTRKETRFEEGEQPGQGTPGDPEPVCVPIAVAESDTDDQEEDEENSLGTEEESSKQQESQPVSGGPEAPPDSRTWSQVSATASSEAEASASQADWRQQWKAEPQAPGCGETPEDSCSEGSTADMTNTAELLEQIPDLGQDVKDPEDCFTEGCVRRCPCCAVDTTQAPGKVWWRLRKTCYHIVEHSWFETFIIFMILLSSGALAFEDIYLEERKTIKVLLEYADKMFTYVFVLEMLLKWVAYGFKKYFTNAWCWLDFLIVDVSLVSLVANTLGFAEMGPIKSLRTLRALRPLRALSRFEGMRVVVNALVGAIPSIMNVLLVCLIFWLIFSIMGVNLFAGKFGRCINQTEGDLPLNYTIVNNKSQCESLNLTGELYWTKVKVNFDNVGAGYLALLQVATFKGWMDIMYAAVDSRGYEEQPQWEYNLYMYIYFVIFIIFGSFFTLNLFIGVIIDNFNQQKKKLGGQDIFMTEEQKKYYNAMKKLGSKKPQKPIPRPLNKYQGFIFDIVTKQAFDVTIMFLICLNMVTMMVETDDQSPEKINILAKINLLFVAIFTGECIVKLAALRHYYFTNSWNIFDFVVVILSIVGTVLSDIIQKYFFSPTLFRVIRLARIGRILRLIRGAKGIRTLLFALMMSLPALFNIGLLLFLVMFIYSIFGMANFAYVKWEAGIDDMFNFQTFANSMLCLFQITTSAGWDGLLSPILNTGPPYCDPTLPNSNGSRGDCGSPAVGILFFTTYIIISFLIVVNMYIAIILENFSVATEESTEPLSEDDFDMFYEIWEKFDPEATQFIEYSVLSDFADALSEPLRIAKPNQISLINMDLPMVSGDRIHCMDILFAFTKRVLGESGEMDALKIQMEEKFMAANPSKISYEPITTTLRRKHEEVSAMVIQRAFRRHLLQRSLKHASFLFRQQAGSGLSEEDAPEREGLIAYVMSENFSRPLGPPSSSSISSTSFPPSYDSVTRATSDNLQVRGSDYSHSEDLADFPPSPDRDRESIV
T1 sequence (Q15858 1-1977 isoform Q15858-3): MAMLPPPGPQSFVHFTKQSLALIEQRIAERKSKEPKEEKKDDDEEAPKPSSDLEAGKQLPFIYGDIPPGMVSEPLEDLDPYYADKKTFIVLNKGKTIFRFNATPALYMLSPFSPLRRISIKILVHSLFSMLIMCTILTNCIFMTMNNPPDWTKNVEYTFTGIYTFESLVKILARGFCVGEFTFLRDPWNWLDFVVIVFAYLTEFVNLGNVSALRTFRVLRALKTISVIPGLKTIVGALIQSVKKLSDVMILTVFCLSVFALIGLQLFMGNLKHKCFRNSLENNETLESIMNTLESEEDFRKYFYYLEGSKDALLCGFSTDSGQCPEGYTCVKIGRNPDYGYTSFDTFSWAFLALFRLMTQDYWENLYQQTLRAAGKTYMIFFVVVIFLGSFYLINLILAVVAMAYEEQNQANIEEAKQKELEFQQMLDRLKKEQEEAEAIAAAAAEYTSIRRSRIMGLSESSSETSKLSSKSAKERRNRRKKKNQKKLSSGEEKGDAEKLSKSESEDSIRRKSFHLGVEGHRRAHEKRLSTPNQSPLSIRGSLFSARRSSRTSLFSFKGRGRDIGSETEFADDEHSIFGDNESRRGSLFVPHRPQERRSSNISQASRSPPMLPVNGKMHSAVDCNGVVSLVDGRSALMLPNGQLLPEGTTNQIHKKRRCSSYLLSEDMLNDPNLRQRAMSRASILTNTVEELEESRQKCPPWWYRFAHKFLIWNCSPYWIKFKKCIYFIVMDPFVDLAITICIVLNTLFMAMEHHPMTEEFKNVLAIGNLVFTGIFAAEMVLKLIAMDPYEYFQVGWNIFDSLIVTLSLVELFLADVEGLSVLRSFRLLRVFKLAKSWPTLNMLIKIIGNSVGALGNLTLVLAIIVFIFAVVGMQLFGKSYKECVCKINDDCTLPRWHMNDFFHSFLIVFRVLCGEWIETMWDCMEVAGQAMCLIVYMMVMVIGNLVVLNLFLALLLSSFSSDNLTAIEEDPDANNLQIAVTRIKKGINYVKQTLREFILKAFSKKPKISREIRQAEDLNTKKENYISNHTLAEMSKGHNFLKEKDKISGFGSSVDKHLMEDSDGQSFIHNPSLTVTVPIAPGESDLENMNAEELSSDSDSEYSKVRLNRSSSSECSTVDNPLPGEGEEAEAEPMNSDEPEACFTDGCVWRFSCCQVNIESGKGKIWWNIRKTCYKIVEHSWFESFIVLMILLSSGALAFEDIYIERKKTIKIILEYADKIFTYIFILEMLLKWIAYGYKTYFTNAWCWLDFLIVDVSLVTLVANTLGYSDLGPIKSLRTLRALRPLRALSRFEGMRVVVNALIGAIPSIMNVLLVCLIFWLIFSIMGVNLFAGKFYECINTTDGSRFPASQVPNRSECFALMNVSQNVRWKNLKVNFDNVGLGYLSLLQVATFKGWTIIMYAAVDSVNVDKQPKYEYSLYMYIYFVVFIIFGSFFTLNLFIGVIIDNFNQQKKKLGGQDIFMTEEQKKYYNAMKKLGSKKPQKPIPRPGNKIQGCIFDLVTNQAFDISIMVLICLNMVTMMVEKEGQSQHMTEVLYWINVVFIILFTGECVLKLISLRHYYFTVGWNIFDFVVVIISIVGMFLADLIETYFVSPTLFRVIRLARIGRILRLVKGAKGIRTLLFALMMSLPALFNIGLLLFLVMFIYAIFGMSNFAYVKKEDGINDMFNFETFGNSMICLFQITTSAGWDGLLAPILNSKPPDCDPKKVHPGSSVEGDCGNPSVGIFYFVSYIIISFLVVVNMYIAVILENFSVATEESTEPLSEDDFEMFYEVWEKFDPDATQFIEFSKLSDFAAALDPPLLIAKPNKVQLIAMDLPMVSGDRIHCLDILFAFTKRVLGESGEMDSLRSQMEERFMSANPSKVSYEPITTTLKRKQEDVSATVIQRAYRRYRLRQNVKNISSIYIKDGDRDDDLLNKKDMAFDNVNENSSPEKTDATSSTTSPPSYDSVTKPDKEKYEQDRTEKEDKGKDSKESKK
T1 sequence (Q07699 19-218 partner): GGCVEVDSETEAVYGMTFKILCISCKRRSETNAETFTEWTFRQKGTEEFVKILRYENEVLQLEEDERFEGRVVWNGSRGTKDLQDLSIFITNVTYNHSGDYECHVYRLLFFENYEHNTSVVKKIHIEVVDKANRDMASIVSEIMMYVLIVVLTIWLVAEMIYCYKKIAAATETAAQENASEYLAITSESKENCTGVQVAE
T2 sequence (Q15858 1-1977 isoform Q15858-3): as the sequence (Q15858 1-1977 isoform Q15858-3) above
T2 sequence (Q07699 19-218 partner): as the sequence (Q07699 19-218 partner) above

SMILES	IC50 [1] [nM]	IC50 [2] [nM]	IC50 ([3]; read-out: Nav1.5) [µM]	IC50 [3, 4] [µM]
CC[C@@H](C)[C@H](NC(=O)c1cc(Cl)c(Oc2cnc(OCC(C)C)c(Cl)c2)cc1F)C(=O)O [Example 186, (2S,3R)-2-(5-chloro-4-((5-chloro-6-isobutoxypyridin-3-yl)oxy)-2-fluorobenzamido)-3-methylpentanoic acid]	8300	350	12	–
CC(C)C[C@H](NC(=O)c1cc(C2CC2)c(OCC23CC4CC(CC(C4)C2)C3)cc1F)C(=O)O [Example 88, (S)-2-(4-(adamantan-1-ylmethoxy)-5-cyclopropyl-2-fluorobenzamido)-4-methylpentanoic acid]	7000	430	8.2	–
C[C@@H](c1cc(Cl)cc(Cl)c1)N1CCC(COc2cc(F)c(C(=O)N3C[C@H](F)C[C@H]3C(=O)O)cc2C2CC2)CC1 [Example 158, (2S,4R)-1-[5-cyclopropyl-4-[[1-[(1S)-1-(3,5-dichlorophenyl)ethyl]-4-piperidyl]methoxy]-2-fluoro-benzoyl]-4-fluoro-pyrrolidine-2-carboxylic acid]	–	–	–	≥ 30
C[C@@H]1CC[C@@H](C(=O)O)N1C(=O)c1cc(C2CC2)c(OCC23CC4CC(CC(C4)C2)C3)cc1F [Example 152, (2S,5R)-1-[4-(1-adamantylmethoxy)-5-cyclopropyl-2-fluoro-benzoyl]-5-methyl-pyrrolidine-2-carboxylic acid]	–	–	13	–
O=C(O)[C@@H]1CCCN1C(=O)c1cc(C2CC2)c(O[C@H]2CCCN(Cc3ccc(F)cc3Cl)C2)cc1F [Example 95, (S)-1-(4-(((S)-1-(2-chloro-4-fluorobenzyl)piperidin-3-yl)oxy)-5-cyclopropyl-2-fluorobenzoyl)pyrrolidine-2-carboxylic acid]	–	≥ 10000	–	≥ 30
C[C@@H](c1cc(Cl)cc(Cl)c1)N1CCC(COc2cc(F)c(C(=O)N3C[C@H](F)C[C@H]3C(=O)O)cc2C2CC2)CC1 [Example 100]	–	–	18	–
O=C(O)[C@@H]1C[C@@H](F)CN1C(=O)c1cc(C2CC2)c(OCC23CC4CC(CC(C4)C2)C3)cc1F [Example 49, (2S,4R)-1-[4-(1-adamantylmethoxy)-5-cyclopropyl-2-fluoro-benzoyl]-4-fluoro-pyrrolidine-2-carboxylic acid]	230	10	–	–
O=C(O)[C@@H]1CCCN1C(=O)c1cc(C2CC2)c(OC2C3CC4CC2CC(Cl)(C4)C3)cc1F (single isomer, unassigned) [Example 82]	1800	1100	–	–
C[C@H]1CC[C@@H](C(=O)O)N1C(=O)c1cc(C2CC2)c(OCC23CC4CC(CC(C4)C2)C3)cc1F [Example 153, (2S,5S)-1-[4-(1-adamantylmethoxy)-5-cyclopropyl-2-fluoro-benzoyl]-5-methyl-pyrrolidine-2-carboxylic acid]	–	–	19	–

Now from value to compound, other results behind:

IC50 [1] [nM]	IC50 [2] [nM]	SMILES	IC50 ([3]; read-out: Nav1.5) [µM]	IC50 [3, 4] [µM]
990	20	O=C(O)[C@@H]1CCCN1C(=O)c1cc(C2CC2)c(OCC2CCN(C(c3ccccc3)c3cc(Cl)cc(Cl)c3)CC2)cc1F (stereo partly drawn) [Example 193, (2S)-1-(5-Cyclopropyl-4-((1-((3,5-dichlorophenyl)(phenyl)methyl)piperidin-4-yl)methoxy)-2-fluorobenzoyl)pyrrolidine-2-carboxylic acid trifluoroacetate]	7.6	–
270	6.9	C[C@H]1OCN(C(=O)c2cc(C3CC3)c(OCC3(C)CN([C@H](c4ccccc4)c4cc(Cl)cc(Cl)c4)C3)cc2F)[C@@H]1C(=O)O [Example 229, (4S,5R)-3-(5-cyclopropyl-4-((1-((R)-(3,5-dichlorophenyl)(phenyl)methyl)-3-methylazetidin-3-yl)methoxy)-2-fluorobenzoyl)-5-methyloxazolidine-4-carboxylic acid]	–	≥ 30
380	16	O=C(O)[C@@H]1C[C@@H](F)CN1C(=O)c1cc(C2CC2)c(OCC2CCN([C@@H](c3ccccc3)c3cc(Cl)cc(Cl)c3)CC2)cc1F (single isomer, unassigned) [Example 125]	6.2	–
220	37	O=C(O)[C@@H]1C[C@@H](F)CN1C(=O)c1cc(C2CC2)c(OCC2CCN(Cc3cc(Cl)cc(OC(F)(F)F)c3)CC2)cc1F [Example 105, (2S,4R)-1-(4-((1-(3-chloro-5-(trifluoromethoxy)benzyl)piperidin-4-yl)methoxy)-5-cyclopropyl-2-fluorobenzoyl)-4-fluoropyrrolidine-2-carboxylic acid]	22	–
210	82	CC1[C@H](O)CN(C(=O)c2cc(C3CC3)c(OCC3(F)CCN([C@@H](C)c4cc(Cl)cc(Cl)c4)CC3)cc2F)[C@@H]1C(=O)O (stereo partly drawn) [Example 208, (2S,4S)-1-(5-Cyclopropyl-4-((1-((S)-1-(3,5-dichlorophenyl)ethyl)-4-fluoropiperidin-4-yl)methoxy)-2-fluorobenzoyl)-4-hydroxy-3-methylpyrrolidine-2-carboxylic acid]	16	–
2600	260	O=C(O)C[C@@H]1CCCN1C(=O)c1cc(C2CC2)c(OCC23CC4CC(CC(C4)C2)C3)cc1F [Example 206, 2-((S)-1-(4-(adamantan-1-ylmethoxy)-5-cyclopropyl-2-fluorobenzoyl)pyrrolidin-2-yl)acetic acid]	16	–
780	91	C[C@@H](c1cc(Cl)cc(Cl)c1)N1CCC(COc2cc(F)c(C(=O)N3C[C@H](Cl)C[C@H]3C(=O)O)cc2C2CC2)CC1 [Example 169, (2S,4R)-4-chloro-1-(5-cyclopropyl-4-((1-((S)-1-(3,5-dichlorophenyl)ethyl)piperidin-4-yl)methoxy)-2-fluorobenzoyl)pyrrolidine-2-carboxylic acid]	13	–
–	≥ 10000	Nc1noc2ccc(-c3cc(Cl)ccc3Oc3cc(F)c(C(=O)N4CCC[C@H]4C(=O)O)cc3F)cc12 [Example 192, (S)-1-(4-(2-(3-aminobenzo[d]isoxazol-5-yl)-4-chlorophenoxy)-2,5-difluorobenzoyl)pyrrolidine-2-carboxylic acid trifluoroacetate]	–	≥ 30
